Experimental findings from PMC9718779, “Discrete LAT condensates encode antigen information from single pMHC:TCR binding events” (Nature Communications, 2022) are described below.

The assay relates to LAT condensation in primary mouse T cells. Description: Ligand potency for LAT condensation (cumulative distinct LAT condensates per cell). In kind it is cell-based. The text has this: Single-molecule TIRF images are taken at the same power dosage (power*exposure) , either by high laser illumination intensity (8 mW) and short exposure time (25 ms) or by low laser illumination intensity (0.4 mW) and long exposure time (500 ms). Single-molecule TIRF images of long exposure time (500 ms) were collected every 2 to 4 s to localize single pMHC-TCR using a laser illumination intensity of 0.4 mW. LAT-eGFP was monitored at 0.4 mW every 2 to 4 s. When cells were imaged to measure LAT condensation only, the cells were imaged as they landed, or within 60 s of landing, for a duration of 300 s. Cells imaged for NFAT-mCherry was done by epifluorescence using 150-ms exposure time every 50 s at 3 and 6 μm above the coverslip to monitor NFAT dynamics. NFAT monitoring continued for 30 min unless otherwise stated.
LAT condensates were initially tracked with TrackMate’s automated workflows and then each track was manually adjusted for proper linking/detection. A pMHC binding event was considered productive if there existed a LAT condensate trajectory whose first frame of detection could be found within 250 nm of the binding event.
Data presented in Fig. 5 originated from T cells that were exposed to supported membranes containing 600 molecules μm^−2 of ICAM-1 and 0.5 molecules μm^−2 pMHC after loading MHC with one of the peptides from the panel. […]

“ANERAELIAYLTQAAEK [T102E, null altered peptide]”: the “rank of productivity in LAT condensate number” value (MCC, T102S, ER60, T102E, cumulative time-series Fig. 5b) is reported as “least”. For the setting “versus ICAM-1 only”, the “LAT signal of null pMHC + ICAM-1 condition” value is given as “did not produce any LAT signal over background levels”.
